Experimental data taken from ChEMBL document CHEMBL1143799, “Synthesis and primary cytotoxicity evaluation of new imidazo[2,1-b]thiazole derivatives” (2007).

Columns and labels:
Type in all cases: functional
[1] = test system: CAKI-1; assay: Growth inhibition of human CAKI1 cells after 48 hrs by SRB protein assay; conditions: CAKI-1, 48 h
[2] = test system: MOLT-4; assay: Growth inhibition of human MOLT4 cells after 48 hrs by SRB protein assay; conditions: MOLT-4, 48 h
[3] = test system: DU-145; assay: Growth inhibition of human DU145 cells after 48 hrs by SRB protein assay; conditions: DU-145, 48 h
[4] = test system: SW-620; assay: Growth inhibition of human SW620 cells after 48 hrs by SRB protein assay; conditions: SW-620, 48 h
[5] = test system: MCF7; assay: Growth inhibition of human MCF7 cells after 48 hrs by SRB protein assay; conditions: MCF7, 48 h
[6] = test system: NCI-H322M; assay: Growth inhibition of human NCI-H322M cells after 48 hrs by SRB protein assay
[7] = test system: HCC 2998; assay: Growth inhibition of human HCC2998 cells after 48 hrs by SRB protein assay; conditions: HCC 2998, 48 h
[8] = test system: RXF 393; assay: Growth inhibition of human RXF393 cells after 48 hrs by SRB protein assay; conditions: RXF 393, 48 h
[9] = test system: ACHN; assay: Growth inhibition of human ACHN cells after 48 hrs by SRB protein assay
[10] = test system: SF-295; assay: Growth inhibition of human SF295 cells after 48 hrs by SRB protein assay; conditions: SF-295, 48 h
[11] = test system: LOX IMVI; assay: Growth inhibition of human LOX IMVI cells after 48 hrs by SRB protein assay
[12] = test system: HOP-92; assay: Growth inhibition of human HOP92 cells after 48 hrs by SRB protein assay; conditions: HOP-92, 48 h
[13] = test system: SNB-19; assay: Growth inhibition of human SNB19 cells after 48 hrs by SRB protein assay; conditions: SNB-19, 48 h
[14] = test system: COLO 205; assay: Growth inhibition of human COLO205 cells after 48 hrs by SRB protein assay; conditions: COLO 205, 48 h
[15] = test system: Hs-578T; assay: Growth inhibition of human HS578T cells after 48 hrs by SRB protein assay
[16] = test system: SF-268; assay: Growth inhibition of human SF268 cells after 48 hrs by SRB protein assay; conditions: SF-268, 48 h
[17] = test system: KM12; assay: Growth inhibition of human KM12 cells after 48 hrs by SRB protein assay; conditions: KM12, 48 h
[18] = test system: OVCAR-3; assay: Growth inhibition of human OVCAR-3 cells after 48 hrs by SRB protein assay; conditions: OVCAR-3, 48 h
[19] = test system: MDA-MB-435; assay: Growth inhibition of human MDA-MB-435 cells after 48 hrs by SRB protein assay; conditions: MDA-MB-435, 48 h
[20] = test system: RPMI-8226; assay: Growth inhibition of human RPMI8226 cells after 48 hrs by SRB protein assay; conditions: RPMI-8226, 48 h
[21] = test system: UACC-257; assay: Growth inhibition of human UACC257 cells after 48 hrs by SRB protein assay; conditions: UACC-257, 48 h
[22] = test system: HCT-15; assay: Growth inhibition of human HCT15 cells after 48 hrs by SRB protein assay; conditions: HCT-15, 48 h
[23] = test system: HOP-62; assay: Growth inhibition of human HOP62 cells after 48 hrs by SRB protein assay; conditions: HOP-62, 48 h
[24] = test system: NCI-H522; assay: Growth inhibition of human NCI-H522 cells after 48 hrs by SRB protein assay; conditions: NCI-H522, 48 h
[25] = test system: EKVX; assay: Growth inhibition of human EKVX cells after 48 hrs by SRB protein assay
[26] = Growth inhibition of human 786O cells after 48 hrs by SRB protein assay; conditions: 786-0, 48 h
[27] = test system: SK-MEL-5; assay: Growth inhibition of human SK-MEL-5 cells after 48 hrs by SRB protein assay; conditions: SK-MEL-5, 48 h
[28] = test system: OVCAR-8; assay: Growth inhibition of human OVCAR8 cells after 48 hrs by SRB protein assay; conditions: OVCAR-8, 48 h
[29] = test system: PC-3; assay: Growth inhibition of human PC3 cells after 48 hrs by SRB protein assay; conditions: PC-3, 48 h
[30] = test system: SK-OV-3; assay: Growth inhibition of human SK-OV-3 cells after 48 hrs by SRB protein assay; conditions: SK-OV-3, 48 h
[31] = test system: SK-MEL-28; assay: Growth inhibition of human SK-MEL-28 cells after 48 hrs by SRB protein assay; conditions: SK-MEL-28, 48 h
[32] = test system: SNB-75; assay: Growth inhibition of human SNB75 cells after 48 hrs by SRB protein assay; conditions: SNB-75, 48 h
[33] = test system: SK-MEL-2; assay: Growth inhibition of human SK-MEL-2 cells after 48 hrs by SRB protein assay; conditions: SK-MEL-2, 48 h
[34] = test system: A549; assay: Growth inhibition of human A549 cells after 48 hrs by SRB protein assay; conditions: A549, 48 h
[35] = test system: NCI-H460; assay: Growth inhibition of human NCI-H460 cells after 48 hrs by SRB protein assay; conditions: NCI-H460, 48 h
[36] = test system: MDA-MB-231; assay: Growth inhibition of MDA-MB-231 cells after 48 hrs by SRB protein assay; conditions: Homo sapiens, MDA-MB-231, 48 h
[37] = test system: UACC-62; assay: Growth inhibition of human UACC62 cells after 48 hrs by SRB protein assay; conditions: UACC-62, 48 h
[38] = test system: NCI-H23; assay: Growth inhibition of human NCI-H23 cells after 48 hrs by SRB protein assay; conditions: NCI-H23, 48 h
[39] = test system: SF-539; assay: Growth inhibition of human SF539 cells after 48 hrs by SRB protein assay; conditions: SF-539, 48 h

O=C(Cc1csc2nc(-c3ccc(Br)cc3)cn12)N/N=C/c1ccc(Cl)cc1Cl
GI50 [1]: 36.3 µM | TGI ([1]; read-out: Log TGI (converted)): > 100 µM | GI50 [2]: 1000 nM | TGI ([2]; read-out: Log TGI (converted)): 26.3 µM | GI50 [3]: 26.3 µM | TGI ([3]; read-out: Log TGI (converted)): > 100 µM | GI50 [4]: 22.9 µM | TGI ([4]; read-out: Log TGI (converted)): 60.3 µM | GI50 [5]: > 100 µM | TGI ([5]; read-out: Log TGI (converted)): > 100 µM | GI50 [6]: 24.5 µM | TGI ([6]; read-out: Log TGI (converted)): 69.2 µM | GI50 [7]: 20 µM | TGI ([7]; read-out: Log TGI (converted)): 44.7 µM | GI50 [8]: 28.2 µM | TGI ([8]; read-out: Log TGI (converted)): 85.1 µM | GI50 [9]: 22.4 µM | TGI ([9]; read-out: Log TGI (converted)): 53.7 µM | GI50 [10]: 34.7 µM | TGI ([10]; read-out: Log TGI (converted)): > 100 µM | GI50 [11]: 21.4 µM | TGI ([11]; read-out: Log TGI (converted)): 49 µM | GI50 [12]: 28.2 µM | TGI ([12]; read-out: Log TGI (converted)): > 100 µM | GI50 [13]: 95.5 µM | TGI ([13]; read-out: Log TGI (converted)): > 100 µM | GI50 [14]: 75.9 µM | TGI ([14]; read-out: Log TGI (converted)): > 100 µM | GI50 [15]: 31.6 µM | TGI ([15]; read-out: Log TGI (converted)): 89.1 µM | GI50 [16]: > 100 µM | TGI ([16]; read-out: Log TGI (converted)): > 100 µM | GI50 [17]: 38 µM | TGI ([17]; read-out: Log TGI (converted)): > 100 µM | GI50 [18]: 34.7 µM | TGI ([18]; read-out: Log TGI (converted)): > 100 µM | GI50 [19]: 31.6 µM | TGI ([19]; read-out: Log TGI (converted)): > 100 µM | GI50 [20]: 79.4 µM | TGI ([20]; read-out: Log TGI (converted)): > 100 µM | GI50 [21]: 69.2 µM | TGI ([21]; read-out: Log TGI (converted)): > 100 µM | GI50 [22]: 25.7 µM | TGI ([22]; read-out: Log TGI (converted)): 72.4 µM | GI50 [23]: 16.6 µM | TGI ([23]; read-out: Log TGI (converted)): 34.7 µM | GI50 [24]: 25.7 µM | TGI ([24]; read-out: Log TGI (converted)): > 100 µM | GI50 [25]: 31.6 µM | TGI ([25]; read-out: Log TGI (converted)): > 100 µM | GI50 [26]: 25.7 µM | TGI ([26]; read-out: Log TGI (converted)): 74.1 µM | GI50 [27]: 44.7 µM | TGI ([27]; read-out: Log TGI (converted)): > 100 µM | GI50 [28]: 18.6 µM | TGI ([28]; read-out: Log TGI (converted)): 50.1 µM | GI50 [29]: 30.2 µM | TGI ([29]; read-out: Log TGI (converted)): > 100 µM | GI50 [30]: > 100 µM | TGI ([30]; read-out: Log TGI (converted)): > 100 µM | GI50 [31]: > 100 µM | TGI ([31]; read-out: Log TGI (converted)): > 100 µM | GI50 [32]: 37.2 µM | TGI ([32]; read-out: Log TGI (converted)): > 100 µM | GI50 [33]: 72.4 µM | TGI ([33]; read-out: Log TGI (converted)): > 100 µM | GI50 [34]: 17 µM | TGI ([34]; read-out: Log TGI (converted)): 37.2 µM | GI50 [35]: > 100 µM | TGI ([35]; read-out: Log TGI (converted)): > 100 µM | GI50 [36]: 26.3 µM | TGI ([36]; read-out: Log TGI (converted)): > 100 µM | GI50 [37]: 23.4 µM | TGI ([37]; read-out: Log TGI (converted)): 67.6 µM | GI50 [38]: 25.7 µM | TGI ([38]; read-out: Log TGI (converted)): 56.2 µM | GI50 [39]: 26.9 µM | TGI ([39]; read-out: Log TGI (converted)): 63.1 µM
